Reference: patent US9505765B2, “4-alkoxy/aralkoxy-5-substituted-pyrrolopyrimidine compounds as TAK1 inhibitors in disease treatment” (Confluence Life Sciences Inc., priority 2012, dated 2016)

Experiments:
TAK1-TAB1 = TAK1-TAB1 (Homo sapiens (Human), UniProt O43318); test: TAK1-TAB1 competitive binding assay (LanthaScreen), without pre-incubation; details: 10 nM TAK1-TAB1, 100 nM kinase tracer-236, read-out: TAK1-TAB1 Inhibition IC50
Excerpt: TAK1-TAB1 Binding Inhibitory Potency: The ability of candidate compounds to interact with TAK1-TAB1 is quantitated by a competitive binding assay using the LanthaScreen technology developed by Life Technologies. This assay is based on the binding of a proprietary, Alexa Fluor® 647-labeled, ATP-competitive kinase inhibitor (kinase tracer-236) to the TAK1-TAB1 construct in presence of a europium-conjugated antibody, resulting in a FRET (fluorescence resonance energy transfer) signal. Displacement of the kinase tracer by compound results in a lower emission ratio upon excitation of the europium chelate. Candidate compounds are designed as potential irreversible inhibitors of TAK1-TAB1, capable of ligating to an active site cysteine residue. The time dependent nature of irreversible inhibition is investigated by performing the binding assay with and without a pre-incubation of compound and TAK1-TAB1.
The inhibitory potency of candidate compounds is measured in 20 mM HEPES pH 7.5, 10 mM MgCl2, 0.01% BSA, 0.0005% Tween-20, and 2% DMSO in the presence of 10 nM TAK1-TAB1, 2 nM Eu-anti-his antibody, and 100 nM kinase tracer-236 using a 384-well plate format. Background signal is defined in the absence of TAK1-TAB1 and uninhibited signal is defined in the presence of vehicle (2% DMSO) alone. Compounds were evaluated in an 11 point dose-response ranging from 20 μM to 0.34 nM. The binding assays are performed under two conditions to evaluate time dependence of inhibition. For the pre-incubation assay, TAK1-TAB1 and Eu-anti-his antibody are preincubated with compound or vehicle for two hours prior to the addition of kinase tracer. The non-preincubated assay is run in which TAK1-TAB1 and Eu-anti-his antibody are added to a mixture of compound and kinase tracer. IC50 values of compounds are determined using a 4 parameter logistical fit of emission ratio as a function of the concentration of compound.
Compounds were tested in accordance with the above described assay, without pre-incubation, yielding the values described below: […]

A549 cells = test: IL-1β stimulated IL-6 Production in A549 cells; format: cell-based; details: Homo sapiens, 1 ng/ml rhIL1β, 18 hrs; for activity at 5 µM: 5 μM compound, read-out: IL-6 Production % Control 5 μM; for activity at 50 µM: 50 μM compound, read-out: IL-6 Production % Control 50 μM; for IC50: read-out: IL-6 Production IC
Procedure: IL-1β stimulated IL-6 Production in A549 cells: The cellular efficacy of compound candidates is determined using the human lung epithelial cell line A549 (ATCC #CCL-185), based upon the methods of Wheeler et al. (2004) J. Nutrition 134, 1039-1044, and Eda et al. (2011) Cell Biol. Int. 35, 355-358. A549 cells produce a number of cytokines (IL6, IL8 and TNFα) in response to stimulation with IL1β. To induce the production of inflammatory mediators, A549 cells are plated at a final concentration of 3×10^5 cells/well of a 96 well flat bottom plate in F12-K medium supplemented with 10% fetal bovine serum, 100 units/ml penicillin and 100 μg/ml streptomycin (Gibco BRL Life Technologies). Cells are treated with or without inhibitors for 3 hrs then stimulated with 1 ng/ml rhIL1β (R & D Systems) for an additional 18 hrs at 37° C. with 5% CO2. The supernatants are removed and stored at −20° C. until they are to be assayed. The levels of inflammatory mediators are determined using commercial MSD cytokine kits (Meso Scale Discovery) as per the manufacturer's instructions. Standard curves are based on 7 steps of 4× serial dilutions, with a wide dynamic range of 10000 pg/ml to 2.4 pg/ml, and the blank in triplicate. Lower limit of detection (LLOD) is calculated at the commonly used 3× the standard deviation of the blank.
Compounds were tested in accordance with the above described assay, yielding the values described below: […]

Sequence of TAK1-TAB1 (O43318 other isoform, or with tags, fused parts or gaps): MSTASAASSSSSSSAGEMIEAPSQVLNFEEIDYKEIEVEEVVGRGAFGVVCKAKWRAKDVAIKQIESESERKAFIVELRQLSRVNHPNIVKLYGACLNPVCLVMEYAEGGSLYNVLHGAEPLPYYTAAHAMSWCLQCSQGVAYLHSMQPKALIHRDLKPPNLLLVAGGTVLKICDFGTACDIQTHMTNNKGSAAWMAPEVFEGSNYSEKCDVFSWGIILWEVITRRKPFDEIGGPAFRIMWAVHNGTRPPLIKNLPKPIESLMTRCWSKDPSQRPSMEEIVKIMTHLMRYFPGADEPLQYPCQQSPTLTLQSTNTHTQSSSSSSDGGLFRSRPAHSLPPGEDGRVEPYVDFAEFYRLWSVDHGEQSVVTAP

| SMILES | IC50 (TAK1-TAB1) [nM] | activity at 5 µM (A549 cells) [%] | activity at 50 µM (A549 cells) [%] | IC50 (A549 cells) [nM] |
| --- | --- | --- | --- | --- |
| CC(C)COc1ncnc2[nH]cc(C=C(F)C(N)=O)c12 (stereo in doubt) [Example 200, (E) 2-fluoro-3-(4-isobutoxy-7H-pyrrolo[2,3-d]pyrimidin-5-yl)-acrylamide] | 860 | 61 | 14 |  |
| CC(C)COc1ncnc2[nH]cc(C#N)c12 [Example 1, 4-isobutoxy-7H-pyrrolo[2,3-d]pyrimidine-5-carbonitrile] | 560 | 83 | 6 |  |
| CC(C)COc1ncnc2[nH]cc(C(=O)CCl)c12 [Example 23, 2-chloro-1-(4-isobutoxy-7H-pyrrolo[2,3-d]pyrimidin-5-yl)ethanone] | 280 | 117 | 0 | 12000 |
| CC(C)COc1ncnc2[nH]cc(/C=C/C#N)c12 [Example 35, (E)-3-(4-isobutoxy-7H-pyrrolo[2,3-d]pyrimidin-5-yl)acrylonitrile] | 210 |  |  |  |
| CC(C)COc1ncnc2[nH]cc(/C=C\C#N)c12 [Example 36, (Z)-3-(4-isobutoxy-7H-pyrrolo[2,3-d]pyrimidin-5-yl)acrylonitrile] | 170 |  |  |  |
| CC(=O)/C=C/c1c[nH]c2ncnc(OCC(C)C)c12 [Example 37, (E)-4-(4-isobutoxy-7H-pyrrolo[2,3-d]pyrimidin-5-yl)but-3-en-2-one] | 100 |  |  |  |
| CC(C)COc1ncnc2[nH]cc(/C=C/C(N)=O)c12 [Example 38, (E)-3-(4-isobutoxy-7H-pyrrolo[2,3-d]pyrimidin-5-yl)acrylamide] | 3.1 | 0 | 0 | 85 |
| CNC(=O)/C=C/c1c[nH]c2ncnc(OCC(C)C)c12 [Example 39, (E)-3-(4-isobutoxy-7H-pyrrolo[2,3-d]pyrimidin-5-yl)-N-methylacrylamide] | 41 | 0 | 0 | 43 |
| N#C/C=C/c1c[nH]c2ncnc(OCc3ccccc3)c12 [Example 93, (E)-3-(4-benzyloxy-7H-pyrrolo[2,3-d]pyrimidin-5-yl)-acrylonitrile] |  | 21 | 15 | 2200 |
| NC(=O)/C=C/c1c[nH]c2ncnc(OCc3ccccc3)c12 [Example 96, (E)-3-(4-benzyloxy-7H-pyrrolo[2,3-d]pyrimidin-5-yl)-acrylamide] | 730 | 78 | 0 |  |
| CCC(=O)/C=C/c1c[nH]c2ncnc(OCC(C)C)c12 [Example 175, (E)-1-(4-isobutoxy-7H-pyrrolo[2,3-d]pyrimidin-5-yl)pent-1-en-3-one] | 200 | 3 | 0 | 990 |
| COC(=O)/C=C/c1c[nH]c2ncnc(OCC(C)C)c12 [Example 176, (E)-methyl 3-(4-isobutoxy-7H-pyrrolo[2,3-d]pyrimidin-5-yl)acrylate] | 200 | 1 | 0 |  |
| COC(=O)/C(C)=C/c1c[nH]c2ncnc(OCC(C)C)c12 [Example 177, (E)-methyl 3-(4-isobutoxy-7H-pyrrolo[2,3-d]pyrimidin-5-yl)-2-methylacrylate] |  | 0 | 0 | 620 |
| CC(C)COc1ncnc2[nH]cc(/C=C/C(=O)O)c12 [Example 178, (E)-3-(4-isobutoxy-7H-pyrrolo[2,3-d]pyrimidin-5-yl)acrylic acid] | 340 | 68 | 1 |  |
| CCNC(=O)/C=C/c1c[nH]c2ncnc(OCC(C)C)c12 [Example 179, (E)-N-ethyl-3-(4-isobutoxy-7H-pyrrolo[2,3-d]pyrimidin-5-yl)acrylamide] | 340 | 0 | 0 | 87 |
| CC(C)COc1ncnc2[nH]cc(/C=C/C(=O)NCC3CC3)c12 [Example 180, (E)-N-(cyclopropylmethyl)-3-(4-isobutoxy-7H-pyrrolo[2,3-d]pyrimidin-5-yl)acrylamide] | 380 | 2 | 0 | 630 |
| CC(C)COc1ncnc2[nH]cc(/C=C/C(=O)NC3CC3)c12 [Example 181, (E)-N-cyclopropyl-3-(4-isobutoxy-7H-pyrrolo[2,3-d]pyrimidin-5-yl)acrylamide] | 180 | 1 | 0 | 180 |
| CC(C)COc1ncnc2[nH]cc(/C=C/C(=O)NC[C@H](C)O)c12 [Example 182, (S,E)-N-(2-hydroxypropyl)-3-(4-isobutoxy-7H-pyrrolo[2,3-d]pyrimidin-5-yl)acrylamide] | 1600 | 36 | 1 | 3400 |
| CC(C)COc1ncnc2[nH]cc(/C=C/C(=O)NC[C@@H](C)O)c12 [Example 183, (R,E)-N-(2-hydroxypropyl)-3-(4-isobutoxy-7H-pyrrolo[2,3-d]pyrimidin-5-yl)acrylamide] | 2500 | 78 | 1 | 12000 |
| CC(C)COc1ncnc2[nH]cc(/C=C/C(=O)N(C)C)c12 [Example 184, (E)-3-(4-isobutoxy-7H-pyrrolo[2,3-d]pyrimidin-5-yl)-N,N-dimethylacrylamide] | 97 | 1 | 0 | 190 |
| CC(C)COc1ncnc2[nH]cc(C#CC(N)=O)c12 [Example 186, 3-(4-isobutoxy-7H-pyrrolo[2,3-d]pyrimidin-5-yl)propiolamide] |  | 1 | 0 | 850 |
| CCC(C)Oc1ncnc2[nH]cc(/C=C/C(N)=O)c12 (stereo not drawn) [Example 187, (E)-3-(4-(sec-butoxy)-7H-pyrrolo[2,3-d]pyrimidin-5-yl)acrylamide] | 4.3 | 0 | 0 | 190 |
| CC(C)Oc1ncnc2[nH]cc(/C=C/C(N)=O)c12 [Example 188, (E)-3-(4-isopropoxy-7H-pyrrolo[2,3-d]pyrimidin-5-yl)acrylamide] | 4.4 | 0 | 0 | 170 |
| CCCOc1ncnc2[nH]cc(/C=C/C(N)=O)c12 [Example 189, (E)-3-(4-propoxy-7H-pyrrolo[2,3-d]pyrimidin-5-yl)acrylamide] | 19 | 0 | 0 | 180 |
| NC(=O)/C=C/c1c[nH]c2ncnc(Oc3ccccc3)c12 [Example 190, (E)-3-(4-phenoxy-7H-pyrrolo[2,3-d]pyrimidin-5-yl)acrylamide] | 170 | 15 | 0 | 1000 |
| NC(=O)/C=C/c1c[nH]c2ncnc(OCC(F)(F)F)c12 [Example 191, (E)-3-(4-(2,2,2-trifluoroethoxy)-7H-pyrrolo[2,3-d]pyrimidin-5-yl)acrylamide] | 33 | 0 | 0 | 150 |
| NC(=O)/C=C/c1c[nH]c2ncnc(OCc3cccc(F)c3)c12 [Example 194, (E)-3-(4-((3-fluorobenzyl)oxy)-7H-pyrrolo[2,3-d]pyrimidin-5-yl)acrylamide] |  | 1 | 1 | 43 |
